Measured values as given in patent US20130046098A1, “KINASE INHIBITORS” (THE UNIVERSITY OF MANCHESTER, priority 2009, published 2013).
Entries after “also recorded” stand apart in the source; their conditions may differ.

Legend:
[1] = system: GEF16 transfected NIH3T3 cells; test: Cell proliferation assay (Celltiter Aq96); format: cell-based, mouse; settings: 10 μM, Cell AQ96 absorbance at 6, 8 and 10 days
Procedure: FIG. 1D is a bar chart showing the results of Cell AQ^96 assessment of the growth of GEF16 and vector transfected cells seeded in a 96 well plate at 1×10^3 cells per well. These were incubated for 3 days followed by addition of reagent to determine the starting point for the assay. 10 μM of either Y27632 or DMSO were then added to wells containing both cell types and Cell AQ^96 absorbance measured at 6, 8 and 10 days. At day 3 cells were 100% confluent which was determined by phase contrast visual inspection of the cultures at ×20 magnification;
Cell proliferation was investigated using Celltiter Aq^96 reagent (Promega, Southampton, UK) according to the manufacturer's protocol. Cells were seeded into a 96-well plate at a density of 1×10^3 cells/well allowing 3 wells per data point and allowed to attach for a set period. Following this, the initial starting point 490 nm absorbance was determined by adding 20 μl of Aq^96 reagent to each well and incubating for 4 h at 37° C. in 5% CO2 (96-well plate reader, Dynex Technologies, West Sussex, UK). The various compounds (Y27632 or compounds of the invention) or DMSO control were then added to duplicate wells and the absorbance determined in the same way at the time points indicated. Each data set shown is representative of three separate experiments.

[2] = system: single transformed colony derived GEF16 NIH3T3 cells; test: Growth of cell populations derived from single GEF16 transformed colonies; format: cell-based, mouse; settings: FIG. 5A
Procedure: FIG. 5 illustrates that the growth suppressive effects of YA1 on single transformed colony derived GEF16 NIH3T3 cells and polyclonal Ras transformed NIH3T3 cells are more pronounced when these are co-cultured with non-transformed cells. In FIG. 5A single transformed colonies were picked from 10 day cultures of GEF16 polyclonal NIH3T3 cells and expanded. These cells were then seeded at 2.0×10^5 cells per 30 mm dish and treated with 10 μM of YA1 or DMSO control either immediately or following 10 days in culture. Duplicate wells were harvested for flow cytometry. In FIG. 5B a total of 2×10^5 cells per well were plated consisting of increasing numbers of non-transformed vector cells co-cultured with decreasing numbers of single transformed colony derived GEF16 cells. These were treated with 10 μM of either YA1 or DMSO for 10 days. In producing the results shown in FIG. 5C the same co-culture experiment described in connection with FIG. 5B was carried out substituting polyclonal Ras transformed NIH3T3 cells for GEF16 transformed cells.
Single transformed colonies were picked from GEF16 polyclonal NIH3T3 cells and expanded according to the methods described above. Expanded cell populations were plated and a compound of the invention (YA1) added either immediately or after 10 days when the cells were post-confluent.

PKC epsilon = target: T1, PKC epsilon (Homo sapiens, UniProt Q02156); settings: 10 μM; cited from earlier work
T1 sequence (Q02156 1-737): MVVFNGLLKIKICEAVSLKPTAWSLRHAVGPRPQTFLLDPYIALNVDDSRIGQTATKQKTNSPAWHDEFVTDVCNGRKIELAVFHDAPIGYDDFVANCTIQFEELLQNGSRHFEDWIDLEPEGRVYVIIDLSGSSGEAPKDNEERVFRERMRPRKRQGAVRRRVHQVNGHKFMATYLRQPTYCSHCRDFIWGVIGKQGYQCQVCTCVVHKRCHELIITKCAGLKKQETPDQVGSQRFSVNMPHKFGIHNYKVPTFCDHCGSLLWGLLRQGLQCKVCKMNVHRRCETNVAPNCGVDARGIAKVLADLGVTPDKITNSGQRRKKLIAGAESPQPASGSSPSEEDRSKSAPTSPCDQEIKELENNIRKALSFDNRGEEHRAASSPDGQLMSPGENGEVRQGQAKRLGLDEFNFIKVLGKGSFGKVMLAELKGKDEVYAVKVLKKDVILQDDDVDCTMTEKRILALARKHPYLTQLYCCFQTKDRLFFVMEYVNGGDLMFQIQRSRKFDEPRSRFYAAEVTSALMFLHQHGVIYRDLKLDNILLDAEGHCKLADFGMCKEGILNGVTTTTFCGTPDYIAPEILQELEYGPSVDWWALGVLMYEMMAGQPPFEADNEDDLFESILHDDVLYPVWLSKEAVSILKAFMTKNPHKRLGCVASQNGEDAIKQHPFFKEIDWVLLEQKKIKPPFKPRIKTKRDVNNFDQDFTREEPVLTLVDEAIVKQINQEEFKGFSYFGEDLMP

[3] = system: polyclonal GEF16 transfected NIH3T3 cells; test: Transformed colony forming assay (Toluidine blue)
Procedure: Following this incubation period the compound was then removed from the culture media and cells maintained in normal growth media for a further 10 days before the photographs shown were taken.
In FIG. 4A polyclonal GEF16 transfected cells were seeded at 2.0×10^5 cells per 30 mm dish and incubated over night. […] After a further 10 days culture in the absence of inhibitors the cells were stained with Toluidine blue and photographed to produce the images shown. […] These were incubated for 3 or 6 days then stained with Toluidine blue before being photographed.
Medium (containing the compound of interest—either Y27632 or the selected compounds of the invention—or DMSO control) was changed every 2 days. Formation of foci was analysed by Toluidine blue (Sigma-Aldrich, Poole, UK) staining after 10 days growth post confluence. […] Each assay was carried out in triplicate and the results shown are representative of at least three separate experiments.

p38 alpha (MAPK14) = p38 alpha (MAPK14) (Homo sapiens, UniProt Q16539); test: SelectScreen in vitro kinase profiling, single point; settings: additional single point analysis, 10 μM
HGK (MAP4K4) = HGK (MAP4K4) (Homo sapiens, UniProt O95819); test: as above; settings: additional single point analysis, 10 μM
ROCK2 = ROCK2 (Homo sapiens, UniProt O75116); test: SelectScreen additional single point analysis; settings: 10 μM
ROCK1 = ROCK1 (Homo sapiens, UniProt Q13464); test: SelectScreen additional single point analysis; settings: 10 μM
recombinant ROCK = test: In vitro ROCK activity assay (Cyclex Rho-kinase immunoassay); format: biochemical; settings: FIG. 2A bar chart
Procedure: A specific assay was used to evaluate the ability of the compounds of the invention to inhibit ROCK. Rho-kinase activity was determined using an immunoassay as recommended by the manufacturer (Cyclex Co., Ltd., Nagano, Japan). Briefly, […] samples containing 10 mUnit (1 Unit incorporates 1 nmol of phosphate into GST-MBS/MYPT1 per minute at 30° C.) of recombinant ROCK with or without the compounds of the invention were aliquoted into a 96-well plate (100 μl/well), pre-coated with threonine Rho-kinase phosphorylation substrate. After 30 min incubation at 30° C., the plate was washed three times with PBS then incubated with 100 μl/well of HRP conjugated anti-phospho-specific antibody for 1 h at room temperature. The amount of phosphorylated substrate was determined by adding 100 μl/well of substrate reagent for 10 min and the reaction was terminated by adding 100 μl/well of the stop solution. The absorbance was measured on a 96-well plate reader at 450 nm (Dynex Technologies, West Sussex, UK). Each data point was performed in triplicate and the assay was repeated twice.

Aurora A = target: T2, Aurora A (Homo sapiens, UniProt O14965); test: SelectScreen in vitro kinase profiling, single point; settings: additional single point analysis, 10 μM
T2 sequence (O14965 1-403): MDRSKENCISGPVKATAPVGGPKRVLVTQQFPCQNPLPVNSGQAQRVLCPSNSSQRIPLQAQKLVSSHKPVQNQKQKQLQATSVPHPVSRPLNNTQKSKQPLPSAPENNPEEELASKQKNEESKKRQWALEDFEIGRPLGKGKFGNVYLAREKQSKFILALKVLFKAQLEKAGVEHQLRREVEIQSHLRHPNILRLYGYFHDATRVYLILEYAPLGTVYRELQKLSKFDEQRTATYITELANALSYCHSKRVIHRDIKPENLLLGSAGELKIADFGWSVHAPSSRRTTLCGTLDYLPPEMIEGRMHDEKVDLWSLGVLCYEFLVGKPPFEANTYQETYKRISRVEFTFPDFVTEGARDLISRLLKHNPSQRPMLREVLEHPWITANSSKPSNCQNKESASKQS

Sequence of ROCK2 (O75116 whole entry): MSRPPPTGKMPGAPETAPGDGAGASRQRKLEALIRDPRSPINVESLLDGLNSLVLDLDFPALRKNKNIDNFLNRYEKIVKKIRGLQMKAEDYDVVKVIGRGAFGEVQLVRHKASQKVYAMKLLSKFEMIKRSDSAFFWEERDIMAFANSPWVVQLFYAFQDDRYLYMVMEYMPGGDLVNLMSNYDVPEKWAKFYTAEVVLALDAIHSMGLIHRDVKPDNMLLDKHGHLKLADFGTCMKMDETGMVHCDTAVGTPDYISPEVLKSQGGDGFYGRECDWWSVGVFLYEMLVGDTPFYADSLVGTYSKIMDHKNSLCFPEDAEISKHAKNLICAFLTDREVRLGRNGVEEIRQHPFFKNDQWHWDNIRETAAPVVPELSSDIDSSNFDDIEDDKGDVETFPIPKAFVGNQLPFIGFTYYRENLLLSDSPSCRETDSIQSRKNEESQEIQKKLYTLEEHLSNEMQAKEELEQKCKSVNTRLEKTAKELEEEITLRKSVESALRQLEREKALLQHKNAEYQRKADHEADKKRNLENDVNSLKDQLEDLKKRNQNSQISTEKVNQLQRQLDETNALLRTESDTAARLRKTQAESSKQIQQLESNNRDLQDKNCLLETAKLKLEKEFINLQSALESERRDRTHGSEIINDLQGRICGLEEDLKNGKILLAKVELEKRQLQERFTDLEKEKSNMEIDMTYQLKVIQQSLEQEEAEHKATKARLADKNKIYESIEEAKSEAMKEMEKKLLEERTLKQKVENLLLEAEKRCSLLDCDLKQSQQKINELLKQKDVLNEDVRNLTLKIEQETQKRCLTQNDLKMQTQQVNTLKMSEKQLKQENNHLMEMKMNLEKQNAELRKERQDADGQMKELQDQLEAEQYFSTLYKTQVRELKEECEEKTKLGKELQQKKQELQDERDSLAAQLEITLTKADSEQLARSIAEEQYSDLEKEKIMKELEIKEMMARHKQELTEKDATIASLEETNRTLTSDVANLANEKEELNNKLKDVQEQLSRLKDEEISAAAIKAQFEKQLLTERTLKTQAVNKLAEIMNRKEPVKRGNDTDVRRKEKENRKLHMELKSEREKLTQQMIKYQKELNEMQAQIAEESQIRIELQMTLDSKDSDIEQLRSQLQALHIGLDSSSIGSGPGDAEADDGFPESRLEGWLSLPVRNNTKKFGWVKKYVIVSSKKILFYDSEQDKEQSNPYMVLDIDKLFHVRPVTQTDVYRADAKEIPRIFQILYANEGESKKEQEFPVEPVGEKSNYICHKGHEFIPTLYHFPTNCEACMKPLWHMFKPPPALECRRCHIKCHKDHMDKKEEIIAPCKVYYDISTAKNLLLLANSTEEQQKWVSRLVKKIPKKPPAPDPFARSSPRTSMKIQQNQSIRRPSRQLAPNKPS
Sequence of p38 alpha (MAPK14) (Q16539 whole entry): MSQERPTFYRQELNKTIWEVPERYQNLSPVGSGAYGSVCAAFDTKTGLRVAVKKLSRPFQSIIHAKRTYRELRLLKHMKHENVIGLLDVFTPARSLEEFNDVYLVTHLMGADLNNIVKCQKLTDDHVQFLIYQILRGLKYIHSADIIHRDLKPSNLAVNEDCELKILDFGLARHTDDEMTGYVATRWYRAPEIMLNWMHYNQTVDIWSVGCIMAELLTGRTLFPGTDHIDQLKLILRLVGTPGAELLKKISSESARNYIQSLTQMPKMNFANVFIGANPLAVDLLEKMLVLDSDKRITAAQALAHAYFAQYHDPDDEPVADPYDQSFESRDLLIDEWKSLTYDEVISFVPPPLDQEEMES
Sequence of ROCK1 (Q13464 whole entry): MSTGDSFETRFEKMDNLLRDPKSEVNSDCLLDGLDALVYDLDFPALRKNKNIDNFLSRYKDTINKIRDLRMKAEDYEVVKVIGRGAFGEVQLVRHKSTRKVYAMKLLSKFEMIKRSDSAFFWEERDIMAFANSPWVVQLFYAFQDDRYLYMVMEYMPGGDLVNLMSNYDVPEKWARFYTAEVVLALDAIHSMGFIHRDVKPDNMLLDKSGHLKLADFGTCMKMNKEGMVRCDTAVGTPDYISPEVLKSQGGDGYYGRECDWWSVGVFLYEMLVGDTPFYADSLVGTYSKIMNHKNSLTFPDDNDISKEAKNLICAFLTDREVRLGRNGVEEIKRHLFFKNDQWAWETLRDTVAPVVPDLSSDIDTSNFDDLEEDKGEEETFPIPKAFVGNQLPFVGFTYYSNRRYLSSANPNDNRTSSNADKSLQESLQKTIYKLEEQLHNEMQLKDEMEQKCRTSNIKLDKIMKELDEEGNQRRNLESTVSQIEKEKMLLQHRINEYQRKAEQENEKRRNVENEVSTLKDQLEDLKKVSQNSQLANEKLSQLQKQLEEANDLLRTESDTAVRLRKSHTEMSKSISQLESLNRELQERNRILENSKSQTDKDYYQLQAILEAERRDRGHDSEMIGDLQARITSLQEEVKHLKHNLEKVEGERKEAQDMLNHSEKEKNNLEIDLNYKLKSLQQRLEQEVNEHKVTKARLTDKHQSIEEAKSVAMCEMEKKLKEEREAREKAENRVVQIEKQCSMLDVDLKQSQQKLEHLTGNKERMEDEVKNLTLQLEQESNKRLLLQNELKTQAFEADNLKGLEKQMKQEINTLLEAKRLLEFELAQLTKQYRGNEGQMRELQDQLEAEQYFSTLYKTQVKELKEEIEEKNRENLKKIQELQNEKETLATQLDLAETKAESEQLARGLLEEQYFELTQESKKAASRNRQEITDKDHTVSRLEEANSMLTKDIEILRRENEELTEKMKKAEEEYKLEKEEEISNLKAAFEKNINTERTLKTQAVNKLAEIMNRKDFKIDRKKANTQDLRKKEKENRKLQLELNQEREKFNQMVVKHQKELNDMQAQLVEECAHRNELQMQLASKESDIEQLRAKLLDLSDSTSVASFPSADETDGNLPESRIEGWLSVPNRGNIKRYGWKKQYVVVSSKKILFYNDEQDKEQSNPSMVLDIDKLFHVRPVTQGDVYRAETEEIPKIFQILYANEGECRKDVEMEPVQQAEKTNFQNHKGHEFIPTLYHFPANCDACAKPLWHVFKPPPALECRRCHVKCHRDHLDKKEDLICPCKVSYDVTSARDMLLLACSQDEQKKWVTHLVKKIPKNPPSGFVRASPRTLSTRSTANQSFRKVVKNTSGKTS
Sequence of HGK (MAP4K4) (O95819 whole entry): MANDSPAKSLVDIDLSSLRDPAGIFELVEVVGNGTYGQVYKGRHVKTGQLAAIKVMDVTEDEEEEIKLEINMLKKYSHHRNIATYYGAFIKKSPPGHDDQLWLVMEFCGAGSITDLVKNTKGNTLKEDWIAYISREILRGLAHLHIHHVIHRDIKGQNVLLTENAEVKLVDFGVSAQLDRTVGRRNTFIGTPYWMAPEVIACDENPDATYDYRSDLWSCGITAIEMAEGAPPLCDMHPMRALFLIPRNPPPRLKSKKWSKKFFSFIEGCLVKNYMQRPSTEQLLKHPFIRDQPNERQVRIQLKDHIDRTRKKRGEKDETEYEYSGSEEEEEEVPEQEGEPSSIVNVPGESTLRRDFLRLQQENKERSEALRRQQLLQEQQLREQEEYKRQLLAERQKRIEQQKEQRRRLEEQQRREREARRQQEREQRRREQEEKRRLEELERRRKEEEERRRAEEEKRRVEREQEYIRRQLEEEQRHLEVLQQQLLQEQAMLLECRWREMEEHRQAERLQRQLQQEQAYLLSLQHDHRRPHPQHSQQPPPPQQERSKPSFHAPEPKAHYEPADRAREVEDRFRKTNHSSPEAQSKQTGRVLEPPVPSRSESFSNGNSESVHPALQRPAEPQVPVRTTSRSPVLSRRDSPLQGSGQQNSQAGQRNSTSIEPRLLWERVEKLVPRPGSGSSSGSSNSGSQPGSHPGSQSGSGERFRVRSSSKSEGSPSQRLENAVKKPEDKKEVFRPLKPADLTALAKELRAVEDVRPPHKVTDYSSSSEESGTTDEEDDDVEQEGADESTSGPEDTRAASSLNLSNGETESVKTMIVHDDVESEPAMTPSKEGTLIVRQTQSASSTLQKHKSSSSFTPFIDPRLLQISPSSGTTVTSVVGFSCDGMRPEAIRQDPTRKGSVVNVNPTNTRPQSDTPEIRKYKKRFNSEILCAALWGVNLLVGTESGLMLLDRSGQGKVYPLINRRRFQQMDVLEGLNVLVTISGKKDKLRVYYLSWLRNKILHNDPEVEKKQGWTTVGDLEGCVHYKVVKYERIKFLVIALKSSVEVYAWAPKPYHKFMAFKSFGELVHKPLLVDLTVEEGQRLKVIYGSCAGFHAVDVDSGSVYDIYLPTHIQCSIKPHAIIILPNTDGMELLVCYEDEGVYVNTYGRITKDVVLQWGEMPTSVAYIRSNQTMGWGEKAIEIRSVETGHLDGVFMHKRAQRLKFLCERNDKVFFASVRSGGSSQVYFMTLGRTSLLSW

C[C@@H](N)[C@H]1CC[C@H](C(=O)Nc2ccncc2)CC1 [Compound Y27632, reference compound]
growth of confluent GEF16 transformed cells [1]: inhibits the growth of confluent GEF16 transformed cells
effect on single colony derived GEF16 transformed cells grown in the absence of non-transformed cells [2]: little or no effect
inhibition of PKC epsilon (PKC epsilon): 94%
transformed focus formation after treatment, re-seeding and chase ([3]; 10 μM for 2-10 days, re-seeded at 2×10^5, 10 day chase without inhibitor): able to suppress transformed focus formation
formation of GEF16 transformed colonies ([3]; 10 μM, 10 days, post confluent cultures): suppresses the formation of GEF16 transformed NIH3T3 cell colonies
effect on pre-formed transformed colonies ([3]; colonies formed for 10 days, then 10 μM or 20 μM for 3 and 6 days): very little effect on pre-formed transformed colonies; also recorded: Neither Y27632 nor the other compounds of the invention tested (data not shown) exhibited this property

C[S+]([O-])c1ccc(-c2nc(-c3ccncc3)c(-c3ccc(F)cc3)[nH]2)cc1 (stereo not shown) [SB203580, reference compound]
activity against GEF16 transformed colonies ([3]; further studies by the inventors): some activity against GEF16 transformed colonies although this was much less than the compound of the invention YA1

CN(C(=O)c1ccc(CNC(=O)OC(C)(C)C)cc1)c1ccncc1 [YA4, 4-(N-Methyl-N-pyridin-4-ylcarbamoyl)benzylcarbamic acid tert-butyl ester]
activity against p38 (p38 alpha (MAPK14)): significant activity against p38, HGK and Aurora A
activity against HGK (HGK (MAP4K4)): significant activity against p38, HGK and Aurora A
activity against ROCK2 (ROCK2): less activity against ROCKs than YA2
activity against ROCK1 (ROCK1): less activity against ROCKs than YA2
ROCK inhibitory activity compared to Y27632 (recombinant ROCK): lower ROCK inhibitory activity; also recorded: significantly less activity against ROCK than did their structural analogue Y27632
activity against Aurora A (Aurora A): significant activity against p38, HGK and Aurora A
